Experimental data taken from US12558348B2, “Bioactive phytochemicals” (Phytoquest Limited, priority 2019, dated 2026).

Test system: TNF-α
Experiment: Production of TNF-α by human monocytic cell line THP-1
Type: cell-based
Experimental: THP-1 cells are commercially available. Cultured cells can be placed in RPMI complete medium in microtitre plates (e.g. […] in 96 well plates) and after 24 hrs incubation, PMA (10 ng/mi) added to 96 well plate to differentiate THP-1 cells and to determine the effects on TNF-α and IL-10 production. The cells should be pre-treated with cucumber extract at, for example, 200 μg/ml to 25 μg/ml followed by 2 hr LPS (100 ng/ml) stimulation. Post incubation, the cell supernatant is aspirated from each of the wells into sterile micro centrifuge tubes and centrifuged at 1000 rpm for 2-3 mins to settle any cells if present. The cell supernatant is then used for evaluation of presence of TNF-α or IL-10 using ELISA. Sandwich ELISA plates coated with suitable antibody are widely available (e.g. R&D Systems, USA).
A second study indicated even greater activity for idoBR1 in human blood (significant at 0.01 μM) with pre-incubation. […] The data clearly indicate that idoBR1 can inhibit the production of TNF-α in human blood. Thus, it appears that it may be a potent anti-inflammatory agent. It also appears that it may be acting via a novel mechanism distinct from the steroid receptor pathways.

Row | Structure (SMILES) | effect on TNF-α production from THP-1 cells (alone with LPS) | inhibition at 50 µM (Homo sapiens, THP-1, 50 μM, identical pretreatment)
1 | CC#C[C@]1(O)CC[C@H]2[C@@H]3CCC4=CC(=O)CCC4=C3[C@@H](c3ccc(N(C)C)cc3)C[C@@]21C [Mifepristone, reference compound] | greatly amplified | 
2 | C[C@@H]1C[C@H]2[C@@H]3CCC4=CC(=O)C=C[C@]4(C)[C@@]3(F)[C@@H](O)C[C@]2(C)[C@@]1(O)C(=O)CO [dexamethasone, reference compound] |  | > 65%
